These results are taken from patent US7560473B2 (Institute of Pharmacology and Toxicology Academy of …, priority 2001, dated 2009).

Assay [1] has as its target T1, ATP-sensitive potassium channels in vascular smooth muscles (Rattus norvegicus, UniProt Q63563).
T1 construct: The aorta was cut into about 3-5 mm arterial rings and the vascular endothelium was scraped off; from tissue; host or cells: endothelium-removed aortic rings of male Wistar rats
Briefly: Association kinetics of [^3H]P1075 binding in aortic rings. Also on record: species or system Wistar rat. Conditions: 37° C.; drug M: Compound 1 10^−4, Glibencamide 10^−5, ATP 10^−2, ADP 10^−3, UDP 5 × 10^−5, GTP 10^−3, Ade 10^−3; control 4.36 ± 0.45; means ± SD, n = 4~10. The text has this:
Biological activity experiment 4. Allosteric regulation of novel compounds on ATP-sensitive potassium channels in vascular smooth muscles.
To study the allosteric regulation of compound 1 on ATP-sensitive potassium channels in vascular smooth muscles, the radio-labled-ligand was used in the biological activity experiment 4.
1. The allosteric regulation of compound 1 on the binding sites for the selective KATP blocker glibenclamide in vascular smooth muscles was studied as follows: After decapitated, the male Wistar rat (340±20 g) was immediately incised open the thoracic cavity. The aorta was dissected and immersed in the 4° C. buffer containing 10 mM HEPES to wash off the blood, then carefully extirpated the fat, peripheral connective tissues and thrombus. The aorta was cut into about 3-5 mm arterial rings and the vascular endothelium was scraped off with wet tampon. The arterial rings were blotted, weighted and transferred into the tubes containing proper amount of ice colded physiological saline buffer. In the association kinetics experiment, the arterial circles in the tubes were incubated with, compound 1(10^−4M), pinacidil(10^−4M), ATP(10^−2M), ADP(10^−3M), Ade(10^−3M), […] and equal volume of buffer respectively for 10 min in 25° C. water bath, and then added [^3H]-glibenclamide(3 nM). At 5,10,15,20,30,60,90 and 120 min after incubation, 9 mL ice colded Tris buffer (50 mM) was added to terminate the reaction. After washing off the free and bound [^3H]-glibenclamide, the aorta was blotted, transferred to a scintillator, added 50 uL 30% H2O2 and reacted for 2 h at 80° C. After cooling, 2.5 mL ethyl glycol and 5 mL 1% B-BPD xylene were added in sequence, kept stationary for 8 h and measured under a scintillometer for cpm value. The resulting data were fit into a regression line with In[BEQ/(BEQ-Bt)]vs.t and the parameters for association kinetics were obtained. In the disassociation kinetics experiments, the aorta treated as described above and [^3H]-glibenclamide were incubated for 60 min at 25° C., and then 30 uM glibenclamide was added. 0,5,15,30,60,90 and 120 min later, the cpm values for the complex of [^3H]-glibenclamide and KATP were measured. The resulting data were fit into a regression line with In(B/BEQ)]vs.t and the parameters for disassociation kinetics were obtained. 2. The allosteric regulation of compound 1 on the binding sites for the selective KATP activator P1075 in vascular smooth muscles was studied with the method as described above, but some conditions should be changed as follows: the incubation temperature was 37° C. instead of 25° C.;P1075 was used instead of glibenclamide; In the association kinetics experiments, the time points for sampling were 5,10,15,20,30,45,60 and 90 min, while in the disassociation kinetics experiments, that were 1,3,5,10,20,30,45 and 60 min. Biological activity experiment 5. The effects of compound 1 on the specific binding of high selective activator [^3H]P1075 with ATP-sensitive potassium channels in vascular smooth muscles.

Assay [2] deals with outward potassium currents of rat tail arterial SMCs. The assay is described as follows: Whole cell recording of outward potassium currents in rat tail arterial SMCs. It is filed as cell-based, Wistar rats. Conditions: outward potassium current amplitude before compound application, same cells; X ± SD n = 5. The text has this:
Biological activity experiments 6. The effects of novel compounds on potassium currents in isolated arterial vascular smooth muscle cells (SMCs).
The outward currents were, elicited in rat tail arterial SMCs by superfusing extracellular solution under whole cell recording configuration that the depolarizing pulse were applied from −30 mV to +100 mV with the holding potential of −40 mV in 100 ms, 10 mV clamp steps, a frequency of 5 KHz. The compounds were applied in the bath at the concentrations of 100 μmol L^−1. The amplitude of the outward potassium currents was recorded before and after compound application Values were expressed as means±SD. Statistical significance between two groups was evaluated by student's t-test for paired data * P<0.05 **P<0.01 vs control.
1. Preparation of single smooth muscle cells from rat tail arteries: Male Wistar rats (200-250 g) were killed by exsanguination. The tail artery was dissected out and transferred into cold physiological salt solution (PSS) of the following composition (in mM): NaCl 118.3, KCl 4.7, KH2PO4 1.2, MgSO4 1.2, NaHCO3 25.0, CaCl2 2.5, EDTA 0.026 and Glucose 5.0 pH7.4. With the use of a dissecting microscope, the connective tissues were removed and the artery was cut open longitudinally. Endothelium was removed carefully with a cotton swab then the artery was cut into segments with 1 mm long and placed in 4° C. the extracellular solution containing (in mM) NaCl 130, KCl 5, MgCl2 1.2, HEPES 10, Glucose 10, pH7.2 for 20 min. After this incubation, the medium was changed to enzyme solution which was composed of collagenase I (1 mg ml^−1), papain (5 mg ml^−) and bovine serum albumin (2 mg ml^−1). The tissues, were incubated in this solution for 40 min, and then rinsed three times triturated using a fire-polished Pasteur pipette until the medium turned cloudily. The cell suspension was stored in the refrigerator at 4° C.
3. Whole cell recordings: A bath dish with the smooth muscle cells (SMCs) attached and superfused with the extracellular solution at a flow rate of 2 ml min^−1 was mounted onto the stage of an inverted-phase contrast microscope. The microelectrodes having a resistance of (5-8 MΩ) were made from boroscilicate thin-wall glass capillaries, using an automatic multiple-stage, electronic puller (PP830 Japan) and then heat-polished. After establishing a high resistance seal, the patch membrane was disrupted by negative pressure. A commercial patch clamp amplifier (Axon 200B) was used to generate and apply voltages and sample current signals from the cell.

T1 sequence (Q63563 1-1545 isoform Q63563-2): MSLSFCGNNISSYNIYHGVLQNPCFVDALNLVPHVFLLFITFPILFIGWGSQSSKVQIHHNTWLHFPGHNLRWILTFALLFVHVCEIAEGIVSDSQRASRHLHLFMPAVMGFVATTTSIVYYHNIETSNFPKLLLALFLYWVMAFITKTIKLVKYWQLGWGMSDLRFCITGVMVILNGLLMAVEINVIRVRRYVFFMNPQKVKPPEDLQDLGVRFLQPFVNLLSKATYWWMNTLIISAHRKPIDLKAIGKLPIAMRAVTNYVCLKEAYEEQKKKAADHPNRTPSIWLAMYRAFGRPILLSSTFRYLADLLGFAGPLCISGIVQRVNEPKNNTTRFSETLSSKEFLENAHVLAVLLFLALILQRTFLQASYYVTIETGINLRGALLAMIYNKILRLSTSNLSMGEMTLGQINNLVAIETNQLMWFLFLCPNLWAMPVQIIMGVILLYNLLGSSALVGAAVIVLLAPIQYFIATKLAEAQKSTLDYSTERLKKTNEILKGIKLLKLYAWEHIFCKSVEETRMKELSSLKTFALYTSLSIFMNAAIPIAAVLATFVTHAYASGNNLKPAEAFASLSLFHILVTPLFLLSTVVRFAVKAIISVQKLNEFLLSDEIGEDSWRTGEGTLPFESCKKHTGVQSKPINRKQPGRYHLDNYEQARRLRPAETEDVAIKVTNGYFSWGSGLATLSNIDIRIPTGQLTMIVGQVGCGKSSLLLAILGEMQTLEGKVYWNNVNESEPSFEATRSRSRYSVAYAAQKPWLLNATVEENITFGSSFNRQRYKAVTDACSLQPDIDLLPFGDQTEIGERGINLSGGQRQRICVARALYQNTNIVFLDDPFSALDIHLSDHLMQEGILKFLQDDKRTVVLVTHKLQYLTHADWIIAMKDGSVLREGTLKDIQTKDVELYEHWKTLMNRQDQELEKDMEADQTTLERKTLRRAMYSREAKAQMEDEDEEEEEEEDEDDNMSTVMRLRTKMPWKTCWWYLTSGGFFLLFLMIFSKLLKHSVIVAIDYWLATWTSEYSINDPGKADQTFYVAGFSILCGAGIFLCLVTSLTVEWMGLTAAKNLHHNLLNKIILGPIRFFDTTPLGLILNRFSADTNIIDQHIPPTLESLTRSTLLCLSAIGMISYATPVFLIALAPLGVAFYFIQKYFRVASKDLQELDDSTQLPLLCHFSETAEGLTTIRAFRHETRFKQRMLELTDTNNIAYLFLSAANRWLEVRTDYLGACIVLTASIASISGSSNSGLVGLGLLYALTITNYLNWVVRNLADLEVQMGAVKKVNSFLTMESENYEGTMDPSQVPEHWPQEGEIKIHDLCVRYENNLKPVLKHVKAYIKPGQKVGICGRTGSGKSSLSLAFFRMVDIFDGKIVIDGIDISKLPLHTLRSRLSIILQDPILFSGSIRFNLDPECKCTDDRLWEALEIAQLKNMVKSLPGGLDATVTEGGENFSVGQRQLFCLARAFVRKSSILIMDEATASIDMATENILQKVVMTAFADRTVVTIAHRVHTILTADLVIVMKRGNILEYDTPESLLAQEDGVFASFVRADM
T1 sequence (Q63664 whole entry partner): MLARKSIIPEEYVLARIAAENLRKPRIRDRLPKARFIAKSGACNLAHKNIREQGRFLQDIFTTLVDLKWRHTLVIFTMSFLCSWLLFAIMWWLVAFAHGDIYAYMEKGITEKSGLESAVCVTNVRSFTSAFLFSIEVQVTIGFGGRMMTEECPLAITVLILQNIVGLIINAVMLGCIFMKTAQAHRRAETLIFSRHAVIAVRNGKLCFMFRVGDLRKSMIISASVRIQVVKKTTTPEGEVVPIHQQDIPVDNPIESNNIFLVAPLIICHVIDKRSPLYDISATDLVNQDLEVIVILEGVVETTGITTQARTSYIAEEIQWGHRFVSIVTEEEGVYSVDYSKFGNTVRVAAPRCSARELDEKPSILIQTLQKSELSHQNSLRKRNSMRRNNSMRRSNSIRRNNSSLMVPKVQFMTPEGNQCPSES

For `CC(C)NC(C)(C)C(C)C` [compound 1, N-(1-methylethyl)-2,3-dimethyl-2-butylamine], in assay [1], the “Association kinetics kobs of [^3H]P1075 binding” value is 2.44 ± 0.80 ×10^−2 nM^−1 · min^−1. Further, in assay [2], the “Currents, Control (before compound application)” value was 0.41 ± 0.08 nA.
